Data on 2 molecules can be found in US20100098640A1, “Multidentate Pyrone-Derived Chelators for Medicinal Imaging and Chelation” (priority 2005, published 2010).

Common to all, as to assay type: physicochemical
A short description of data set [1]: Protonation constants of free ligands by potentiometric titration. The settings on record: 1.0 M aqueous NaCl, ligand ~0.5 mM. How it is done: Thermodynamic evaluation of the new ligands can include potentiometric determination of the ligand protonation constants and spectrophotometric evaluation of the Gd^3+, Ca^2+, and Zn^2+ stability constants. In order to determine the stability of these ligands with Gd^3+, first the protonation constants for each ligand is determined. The protonation constants can be measured by potentiometric titration and the assignment of these protonations can be made using ^1H NMR titrations. ^1H NMR titration experiments use changes in the chemical shift of the non-exchangeable protons on the ligand to assign the sites of protonation; data is plotted as chemical shift vs. pD.
The experimental protocols and equipment used have been previously described (Johnson, A. R., et al. Inorg. Chem. 2000, 39, 2652). To determine the protonation constants of the free ligands, approximately 15 mg of ligand was dissolved in 50 mL of a 1.0 M aqueous solution of NaCl in a titration vessel (ligand concentration ˜0.5 mM). Protonation constants of TRENMAM and TREN-Me-MAM were examined by potentiometric (pH vs total proton concentration) titrations by using Hyperquad (Gans, P. et al. Talanta 1996, 43, 1739) for data analysis. Each protonation constant determination is the result from at least three experiments (where each experiment consists of two titrations, the first one titrated with acid, followed by a reverse titration with base). The equilibration time between additions of titrant was 90 seconds.

A short description of another data set: Aqueous solubility.
Data set [2] in a line: Competition batch titration with DTPA (pGd). The settings on record: pH 7.4, 24 h equilibration, three titrations. The text has this: The affinity of these ligands for protons and metal ions in solution is described in terms of formation constants. The protonation of a metal complex can be subsequently calculated from the appropriate cumulative constants. The stability of metal complexes can be discussed in terms of the pM value (in this case pGd) which is expressed as
Although a pM value can be calculated under various conditions (e.g. different pH's or relative concentrations), in the context of a biological scenario the following parameters are commonly used for comparison: [M]=1 μM, [L]=10 μM, and pH=7.4.
The stability of the heteropodate ligands with Gd^3+, Ca^2+, and Zn^2+ can be measured by spectrophotometric titration. The strong UV absorptions (π→π*) of the pyrone rings of the ligands can be monitored in order to follow the complexation reaction (FIG. 2). The titration can be performed in a batch mode, collecting between 20-40 spectra, monitored between 200-500 nm for each titration of a ligand in the presence of an equal molar amount of Gd^3+, Ca^2+ or Zn^2+. […]

In the case of `O=C(NCCN(CCNC(=O)c1occc(=O)c1O)CCNC(=O)c1occc(=O)c1O)c1occc(=O)c1O` [TRENMAM], in data set [1], the “log K1 (protonation constant)” value was 7.33(1), the “log K2 (protonation constant)” value is given as 5.76(1), the “log K3 (protonation constant)” value is 4.97(2) and the “log K4 (protonation constant)” value was 3.84(2). In addition, in the data set “Aqueous solubility”, the “water solubility compared to the TREN-Me-MAM ligand” value is reported as “improved water solubility”. Also, the pGd in data set [2] stood at 19.27±0.08.
Consider “tris(aminoethyl)amine)methylmaltolamide [TREN-Me-MAM]”, for which, in data set [1], the “log K1 (protonation constant)” value is 7.91(1), the “log K2 (protonation constant)” value is listed as 6.30(2), the “log K3 (protonation constant)” value is given as 5.48(2) and the “log K4 (protonation constant)” value is 4.46(2). The molecule further gave a pGd in data set [2] of 19.03±0.04.
